Test system: γ-Secretase
Experiment: Cell-based ELISA assay of β-AP production by transfected H4 cells expressing β-APP (Swedish variant); reported as inhibition of γ-secretase
Conditions: β-AP in conditioned medium of transfected H4 (human neuroglioma) cells by ELISA, approximately 16 hours incubation, dose response
Text: Production and detection of β-AP made by cells in culture. The use of transfected H4 (human neuroglioma) cells stably expressing constructs containing wild-type and mutant forms of β-APP have been used to identify inhibitors of β-AP production. The Swedish variant of β-APP produces 5-7 fold more β-AP than the wild type and is typically used due to its enhanced signal. […] The capture antibody is typically a mouse monoclonal (lgG1/kβ-APPa). The antibody recognizes the carboxyl terminal epitope of β-AP. The specificity of the capture antibody ensures measurement of β-AP without interference by other secreted β-APP fragments that share amino acid sequence (β-AP1-16) with β-AP. […] In the cell-based assay conditioned medium from H4 cells is tested by ELISA for the quantity of β-AP present. […]
A typical ELISA-based assay requires plating of the transfected cells at a density sufficient for the rapid detection of the secreted β-AP (experimentally predetermined for a particular stable cell population) in a 96-well format. […] Incubation of the cells with the test agent will continue for approximately 16 hours at which time equal aliquots of media from each sample well is removed and placed into a previously prepared ELISA plate for β-AP quantitation. The ELISA is carried out in a manner described by others (Haass, et al., 1992; Hawlow and Lane, 1988) and the β-AP signal quantitated. […]

## [αS-(αR*, γR*, δR*)] N-(2,2-dimethylpropyl)-γ-hydroxy-α-(1-methylethyl)-δ-[(4-methylpentyl)amino]cyclohexanehexanamide hydrochloride. [Example 31]
  Activity Rating: +++ (+++ ⇐ 10)

— patent publication EP0778266A1, “5-Amino-6-cyclohexyl-4-hydroxy-hexanamide derivatives as inhibitors of beta-amyloid protein production” (BRISTOL-MYERS SQUIBB COMPANY, priority 1995, dated 1997)
